From patent US11517575B2, “Use of minaprine to reduce tumor growth” (Institut Gustave-Roussy, priority 2019, dated 2022) come the findings set out here.

One experiment has as its system HCT116 cells. Nature of the experiment: Screening of chemical libraries for IR-mediated cellular cannibalism (imaging flow cytometry, confocal validation). In kind it is cell-based, human. As to conditions: for enhancement of IR-mediated cellular cannibalism: 8 Gy irradiated HCT116 cells, 10 μM compound, 24 h culture, dihydrochloride. On the procedure:
FIG. 4 Identification of cannibalism modulators triggered by ionizing radiation. Compounds from the Prestwick (A) and CEA (F) libraries were tested for their capacities to induce cellular cannibalism after ionizing radiation. Cannibal cells were detected after homotypic cultures of 8 gray γ-irradiation HCT116 cells in the presence or absence of 10 μM of the Prestwick (A) and CEA […] library compounds. Each dot represents one compound. Representative images are shown in (B, G). (C, H) HCT116 cells were treated with the indicated drugs. After 24 h of treatment, cell death was monitored by staining with 3,3 dihexyloxacarbocyanine iodide (DiOC6(3)) and PI^+, and the percentage of dying (DiOC6(3)^low PI^−, open bars) and dead (DiOC6(3)^low PI^+, closed bars) cells was determined by cytofluorometry. Validation of the cannibalism inducers by fluorescent microscopy. Representative images (D, I) and quantification (E, J) are shown. Results are means s.e.m. of triplicate determinations.
Untreated HCT116 cells were labeled with CMFDA (green fluorescence, CMFDA^+) or CMTMR, (red fluorescence, CMTMR) and treated HCT116 cells with CMFDA (green fluorescence, CMFDA^+). The following cell mixtures were performed: untreated CMTMR^+ HCT116 cells were mixed with untreated CMFDA^+ HCT116 cells, or untreated CMTMR^+ HCT116 cells were mixed with treated CMFDA^+ HCT116 cells. Then, cells were co-cultured during 24 hours in the presence or absence of the pharmacological inhibitor of ROCK, Y27632 (30 μM), the pan-caspase inhibitor, Z-VAD-fmk (ZVAD, 100 μM), the inhibitor of caspase-1, Ac-YVAD-cmk (YVAD, 100 μM), the necroptosis inhibitor, Necrostatin-1 (NEC1, 30 μM), the inhibitor of the vacuolar type H(+)-ATPase (V-ATPase) inhibiting autophagy, Bafilomycin A1 (BafA1, 50 nM), the inhibitor of Cdks with an anti-mitotic activity, Roscovitine (Rosco, 10 μM). After 24 hours of co-culture, both detached and adherent cells were collected and stained with Hoechst […] (10 μg/mL) during 1 hour at 37° C. in warmed complete medium. To detect phosphatidylserine (PS) exposure and plasma membrane permeability, labeled HCT116 cells were successively incubated with Biotin-AnnexinV (BD Pharmingen) as recommended by manufacturer, […] BV786-Streptavidin (BD Biosciences) and 3 μM DRAQ7 (BioStatus) during 15 minutes at 25° C. After washing with PBS solution, samples were immediately analyzed using an imaging flow cytometer FlowSight® (Amnis®, part of EMD Millipore). Data were acquired at a 20× magnification, using INSPIRE software. The 405 nm, 488 nm, and 561 nm lasers were used for excitation. Brightfield, Annexin V-BV786, DRAQ7, CMFDA, CMTMR and Hoechst […] stainings were detected using respectively channels for 420-480 nm, 745-800 nm, 642-745 nm, 480-560 nm, 595-642 nm and 430-505 nm. At least 1000 events of cells per sample were analyzed. Additional single-labeled controls were prepared to normalize fluorescent signal across different channels. Acquired data were analyzed using the IDEAS analysis software (v6.1; Merck-Millipore). Gating strategy was the following. Cells were gated for focused cells using the Gradient RMS feature. Cells were gated for single cells using the aspect ratio and area features. For the cannibalism detection, cells were gated in the double positive CMFDA^+ and CMTMR^+ staining.
To detect PS exposure, plasma membrane permeability and cell cycle progression, cells were after co-culture sequentially labeled with specific fluorescent probes (such as FITC-conjugated AnnexinV, propidium iodide, and Hoechst 33342) and analyzed by flow cytometry. Both detached and adherent cells were collected and stained with Hoechst […] (10 μg/ml) during 1 hour at 37° C. in warmed complete medium. After washing with PBS, HCT116 cells were suspended in 1× binding buffer supplemented with fluorescein isothiocyanate (FITC)-conjugated Annexin V (BD Biosciences) and propidium iodide (PI, 1 μg/mL) (Sigma), as per manufacturer's instructions. […]
On the technique in general: Flow cytometry measures light scatter and fluorescence of single cells or particles in a stream.

In a further experiment the test system is CT26 tumor cells. The experiment can be described thus: Tumor growth in immunocompetent mice after intratumoral or intraperitoneal injection. In kind it is in vivo, mouse. Particulars: Balb/c mice. On the procedure: FIG. 7. Minaprine reduces tumor growth in immunocompetent mice after intratumoral or intraperitoneal injections. (A-C) 3 10^6 CT26 cells were implanted in immunocompetent BALB/c mice. Palpable tumors were injected with 10 μM Minaprine (or control) after 6 days. The tumor growth volume was then determined three times a week for the following 38 days (A and B). The percentage of mice survival was also determined (C). (D-I) 5 10^5 CT26 cells were implanted in immunocompetent BALB/c mice. After 12 days, tumor bearing mice were intraperitoneally injected with control (D and I), 0.3 mg/kg (E and I), 1 mg/kg (F and I), 3 mg/kg (G and I) or 10 mg/kg (H and I) of Minaprine. Tumor growth volumes (A-J) and fold change in the tumor volumes after intraperitoneal injection (D-I) were analyzed. Tumor growth volumes were the determined three times a week for the following 38 days.
For intratumoral injection, 3 10^6 Balb/c-derived CT26 tumor cells were subcutaneously implanted in 8 week-old Balb/c mice (Janvier Laboratories). After 6 days, 10 μM of Minaprine or control phosphate buffer saline (PBS) was injected into tumors (20 μl) and tumor volume was evaluated 3 times a week. For intraperitoneal injection, 5 10^5 Balb/c-derived CT26 tumor cells were subcutaneously implanted in 8 week-old Balb/c mice (Janvier Laboratories). After 12 days, tumor-bearing mice were intraperitonealy injected with different concentrations of Minaprine (0.3, 1, 3 and 10 mg/kg) or PBS. Tumor volume was also evaluated 3 times a week. The experiments were randomized, performed in compliance with the EU Directive 63/2010 and approved by Ethical Committee at Gustave Roussy Cancer Campus (CEEA IRCIV/IGR n^o26).
No statistical methods or criteria were used to estimate sample size or to include/exclude samples. The investigators were not blinded to group allocation during experiments and outcome assessment. Results are expressed as mean value SEM. To determine statistical significance, Two-way ANOVA (FIG. 7A) and Log rank (Mantel-Cox) (FIG. 7I) tests were used for calculation of P values. Prism 6 Software was used for the generation of survival graphs and statistical significance. Statistical significance was given as **p value<0.01 or *p value<0.05.
We first subcutaneously implanted 3 10^6 Balb/c-derived CT26 colon cancer cells in immunocompetent Balb/c mice. After 6 days, tumor-bearing mouse were randomized and 10 μM of Minaprine (3 mg/kg) was injected into tumors. Tumor growth was analyzed during 38 days.
We next determined whether intraperitoneal injections of Minaprine could also impact tumor growth. Thus, 5 10^5 Balb/c-derived CT26 cells were implanted into immunocompetent Balb/c mice. After 12 days, tumor-bearing mice were randomized, intraperitoneally injected with control (FIGS. 7D and 7I) or with Minaprine at different concentrations (FIGS. 7E-7I).

On to `Cc1cc(-c2ccccc2)nnc1NCCN1CCOCC1.Cl.Cl` [Minaprine dihydrochloride], for which the results for the “enhancement of IR-mediated cellular cannibalism” value in the experiment with HCT116 cells and in the experiment with HCT116 cells (listed as Minaprine) were “efficient cellular cannibalism enhancer” and “significantly increased in presence of ionizing radiation”, respectively. Moreover, in the experiment on HCT116 cells (cancer cells treated with compound, without IR), the “induction of cellular cannibalism (Type IV cell death)” value is given as “favors the induction of Type IV cell death modality”. Also, the tumor growth entry in the experiment with CT26 tumor cells (intraperitoneal injection 1 mg/kg 12 days after implant of 5 10^5 CT26 cells) is on record as “significantly decreased the growth of treated tumors”; in the experiment on CT26 tumor cells (intraperitoneal injection 3 mg/kg 12 days after implant of 5 10^5 CT26 cells), “significantly decreased the growth of treated tumors”; in the experiment on CT26 tumor cells (intraperitoneal injection 10 mg/kg 12 days after implant of 5 10^5 CT26 cells) it was “significantly decreased the growth of treated tumors”; in the experiment on CT26 tumor cells (intratumoral injection 3 mg/kg (10 μM) 6 days after implant of 3 10^6 CT26 cells, followed 38 days) it was “significantly decreases the growth of tumors”. Also, the “survival of treated mice” value in the experiment on CT26 tumor cells (intratumoral injection 3 mg/kg, CT26 tumors, versus untreated control) is reported as “increase survival”.
